In assay [1] the target is T1, Subtilisin-like protease 1 (Plasmodium falciparum) (UniProt O61142).
T1 sequence (whole entry): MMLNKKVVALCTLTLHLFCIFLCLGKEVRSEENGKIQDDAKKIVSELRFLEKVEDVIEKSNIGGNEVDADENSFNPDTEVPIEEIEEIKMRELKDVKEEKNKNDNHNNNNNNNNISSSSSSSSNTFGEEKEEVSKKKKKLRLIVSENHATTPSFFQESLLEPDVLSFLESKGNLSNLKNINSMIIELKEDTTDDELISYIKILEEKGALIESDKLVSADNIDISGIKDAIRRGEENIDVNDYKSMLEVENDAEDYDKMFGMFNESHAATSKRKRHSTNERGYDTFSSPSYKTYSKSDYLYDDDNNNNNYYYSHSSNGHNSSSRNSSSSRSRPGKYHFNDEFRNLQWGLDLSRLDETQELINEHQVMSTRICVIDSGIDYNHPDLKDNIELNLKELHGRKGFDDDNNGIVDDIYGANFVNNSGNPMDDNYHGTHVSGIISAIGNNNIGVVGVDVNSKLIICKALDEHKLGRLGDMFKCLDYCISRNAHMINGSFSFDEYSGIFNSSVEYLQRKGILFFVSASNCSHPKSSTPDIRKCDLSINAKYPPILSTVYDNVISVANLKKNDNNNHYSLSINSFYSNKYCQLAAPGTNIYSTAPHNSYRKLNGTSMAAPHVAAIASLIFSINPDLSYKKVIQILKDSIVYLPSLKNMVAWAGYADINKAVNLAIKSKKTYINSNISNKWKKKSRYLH
Kind of assay: Inhibition of Plasmodium falciparum SUB1 assessed as residual hydrolytic activity at 50 uM by fluorimetric assay.

The target of assay [2] is T2, Subtilisin-like protease 1 (Plasmodium falciparum, UniProt O61142).
T2 sequence (O61142 whole entry): T1 sequence (whole entry)
Nature of the assay: Inhibition of Plasmodium falciparum SUB1 by fluorimetric assay.

Results on 35 compounds are retold here after ChEMBL document CHEMBL2057068, “Quinolylhydrazones as novel inhibitors of Plasmodium falciparum serine protease PfSUB1” (Bioorg Med Chem Lett, 2012).

Some results are limits rather than exact numbers.

For the compound `Cc1cc(NNC(=O)c2ccc(S(C)(=O)=O)cc2)c2cc3c(cc2n1)OCO3`, in assay [1], the Activity was 68.7%.

In the case of `Cc1cc(NNC(=O)c2ccc([N+](=O)[O-])cc2)c2cc3c(cc2n1)OCO3`, the Activity in assay [1] was found to be 64.4%.

`Cc1cc(N/N=C/c2ccc(C#N)cc2)c2ccccc2n1`: the Activity in assay [1] came out at 85%.

One may read the IC50 as the midpoint of a concentration-inhibition curve. A higher IC50 goes with weaker potency. Take `COc1ccc2nc(C)cc(N/N=C/c3ccc([N+](=O)[O-])cc3)c2c1`: the Activity in assay [1] turned out to be 12.3%. In assay [2], inhibition was half-maximal at 20 µM (IC50).

Regarding `O=[N+]([O-])c1ccc(/C=N/Nc2ccnc3ccccc23)cc1`, the Activity in assay [1] is 80.6%.

For `Cc1cc(N/N=C/c2ccc(S(C)(=O)=O)cc2)c2cc3c(cc2n1)OCO3`, the Activity in assay [1] was determined as 76.4%.

In the case of `Cc1cc(N/N=C/c2ccc(Br)cc2)c2cc3c(cc2n1)OCO3`, the Activity in assay [1] was 78.2%.

As to `C/C(=N\Nc1cc(C)nc2cc3c(cc12)OCO3)c1ccc([N+](=O)[O-])cc1`, the Activity in assay [1] was 60.3%.

On to `Cc1cc(N/N=C/c2ccc(/C(N)=N/O)cc2)c2cc3c(cc2n1)OCO3`, for which, in assay [1], the Activity came to 73.9%.

`COc1ccc2nccc(N/N=C/c3ccc([N+](=O)[O-])cc3)c2c1`: in assay [1], the Activity was 32.4%. For the same compound, the IC50 in assay [2] was 50 µM.

As to `Cc1cc(N/N=C/c2cccc([N+](=O)[O-])c2)c2cc3c(cc2n1)OCO3`, in assay [1], the Activity was determined as 97.2%.

`Cc1cc(NNC(=O)c2ccc(C#N)cc2)c2cc3c(cc2n1)OCO3`: in assay [1], the Activity is 85.5%.

Consider `Cc1cc(N/N=C/c2ccc(C(F)(F)F)cc2)c2cc3c(cc2n1)OCO3`, for which, in assay [1], the Activity was 86.1%.

As for `CSc1ccc(/C=N/Nc2cc(C)nc3cc4c(cc23)OCO4)cc1`, the Activity in assay [1] is 77.5%.

Turning to `N#Cc1ccc(/C=N/Nc2ccnc3ccccc23)cc1`, the Activity in assay [1] was determined as 74.3%.

Turning to `CC(=O)Nc1ccc(/C=N/Nc2cc(C)nc3cc4c(cc23)OCO4)cc1`, the Activity in assay [1] stood at 70.9%.

Take `CCOC(OCC)c1ccc(/C=N/Nc2cc(C)nc3cc4c(cc23)OCO4)cc1`: the Activity in assay [1] came out at 75.6%.

In the case of `Cc1cc(N/N=C/c2ccc(NS(C)(=O)=O)cc2)c2cc3c(cc2n1)OCO3`, the Activity in assay [1] turned out to be 72.2%.

With `Cc1cc(N/N=C/c2ccc(C(F)(F)F)cc2C(F)(F)F)c2cc3c(cc2n1)OCO3`, the Activity in assay [1] came to 62.1%.

With `Cc1cc(N/N=C/c2ccc(F)cc2)c2cc3c(cc2n1)OCO3`, the Activity in assay [1] amounted to 97%.

Regarding `Cc1cc(N/N=C/c2ccc(C#N)cc2)c2cc3c(cc2n1)OCO3`, in assay [1], the Activity came out at 29.2%. In assay [2], this compound displayed an IC50 of 40 µM.

As for `O=[N+]([O-])c1ccc(/C=N/Nc2c3c(nc4ccccc24)CCCC3)cc1`, in assay [1], the Activity was 55.8%. The compound also returned a concentration for half-maximal inhibition (IC50) in assay [2] of more than 50 µM.

`Cc1cc(N/N=C/c2ccc(Cl)cc2)c2cc3c(cc2n1)OCO3`: the Activity in assay [1] turned out to be 77.9%.

For `Cc1cc(N/N=C/c2ccc(C(=O)O)cc2)c2cc3c(cc2n1)OCO3`, the Activity in assay [1] was 75.5%.

Consider `O=[N+]([O-])c1ccc(/C=N/Nc2ccncc2)cc1`, for which, in assay [1], the Activity was 84.6%.

`O=[N+]([O-])c1ccc(C=NNc2nc3ccccc3[nH]2)cc1`: in assay [1], the Activity is 43.1%. In assay [2], this compound yielded an IC50 of more than 50 µM.

`Cc1cc(/N=C/c2ccc([N+](=O)[O-])cc2)c2cc3c(cc2n1)OCO3`: the Activity in assay [1] turned out to be 72.2%.

Regarding `N#Cc1ccc(/C=N/Nc2c3c(nc4ccccc24)CCCC3)cc1`, in assay [1], the Activity was 81.5%.

`Cc1cc(N/N=C/c2ccc([S+](C)[O-])cc2)c2cc3c(cc2n1)OCO3` (configuration not stated): in assay [1], the Activity is 92.4%.

Consider `Cc1cc(N/N=C/c2ccc(C=O)cc2)c2cc3c(cc2n1)OCO3`, for which the Activity in assay [1] was 86.5%.

As for `Cc1cc(N/N=C/c2ccccc2[N+](=O)[O-])c2cc3c(cc2n1)OCO3`, in assay [1], the Activity was determined as 38.6%. In assay [2], this compound displayed a concentration for half-maximal inhibition (IC50) of 40 µM.

With `COC(=O)c1ccc(/C=N/Nc2cc(C)nc3cc4c(cc23)OCO4)cc1`, the Activity in assay [1] was determined as 85%.

As to `Cc1cc(N/N=C/c2ccccc2C(F)(F)F)c2cc3c(cc2n1)OCO3`, in assay [1], the Activity came out at 100%.

For the compound `Cc1cc(N/N=C/c2ccc([N+](=O)[O-])cc2)c2cc3c(cc2n1)OCO3`, in assay [1], the Activity was 27.2%. In assay [2], this compound returned a half-maximal inhibitory concentration (IC50) of 20 µM.

With `O=C(NNc1nc2ccccc2[nH]1)c1ccc([N+](=O)[O-])cc1`, the Activity in assay [1] stood at 46.7%.
